The results in this text go back to publication PMC11019538, “Biophysics-Guided Lead Discovery of HBV Capsid Assembly Modifiers” (ACS Infectious Diseases, 2024).

The subject of series [1] is HBV DNA replication in HepAD38 cells. As to the kind of experiment: HBV DNA replication inhibition assay in HepAD38 cells (7 days, PCR of supernatant DNA). The class given is cell-based, hepatitis B virus. Conditions: HepAD38 cells. As for the experimental part:
HepAD38 cells were seeded at 50,000 cells/well in collagen-coated 96-well plates. […] The experiment lasted 7 days. On day 7, total DNA was purified from the supernatant using a commercially available kit (DNeasy 96 Blood & Tissue kit, Qiagen). The HBV DNA was amplified in a polymerase chain reaction assay using LightCycler 480 II (Roche), as previously described.[63] All samples were tested in duplicate.

For series [2], the system named is human peripheral blood mononuclear (PBM) cells. Briefly: MTT cytotoxicity, PBM cells. The class given is cell-based. The procedure:
(§1) Human peripheral blood mononuclear (PBM), T lymphoblast CEM-CCRF (herein referred to as CEM cells), African green monkey kidney (Vero), or human liver carcinoma (HepG2) cells were tested via MTT assay using the CellTiter 96 Non-Radioactive Cell Proliferation (Promega) kit as previously described.[63]

The subject of series [3] is T lymphoblast CEM-CCRF (CEM) cells. As to the kind of experiment: MTT cytotoxicity, CEM cells. The class given is cell-based, human. The procedure: as §1
The test system of series [4] is African green monkey kidney (Vero) cells. As to the kind of experiment: MTT cytotoxicity, Vero cells. The class given is cell-based. Conditions: Vero cells. The procedure:
as §1

Series [5] deals with human liver carcinoma (HepG2) cells. As to the kind of experiment: MTT cytotoxicity, HepG2 cells. The class given is cell-based. Conditions: HepG2 cells. The procedure:
as §1

Setting [6] is: trial 1, read-out: EC50, trial 1.
[7] abbreviates: trial 2, read-out: EC50, trial 2.

Read-outs that look alike come from different tables or passages of the source.

On to `COc1ccc(-c2cc(C(=O)Oc3cccc(-c4cnc5ccccc5n4)c3)c3ccccc3n2)cc1` [GT-31], for which the “% HBV DNA Inh. at 10 μM, trial 1” value in series [1] (trial 1) was less than 1%. Besides, the “% HBV DNA Inh. at 10 μM, trial 2” value in series [1] (trial 2) was less than 1%. Moreover, the EC50 in series [1] (setting [6]) and in series [1] (setting [7]) was greater than 10 µM in each case. Moreover, the CC50 in series [2] was 86 µM; in series [3], greater than 100 µM; in series [4], 97 µM; in series [5], 42 µM. In series [3], the “% cytotoxicity at 100 µM (MTT), CEM cells” value (from here on “% cytotoxicity at 100 µM”) amounted to 36%.
In the case of `c1ccc(Cn2cc(-c3cccnc3)c(-c3nc(-c4ccccc4)c(-c4ccccc4)[nH]3)n2)cc1` [GT-34], the “% HBV DNA Inh. at 10 μM, trial 1” value in series [1] (trial 1) is given as less than 1%. Further, the “% HBV DNA Inh. at 10 μM, trial 2” value in series [1] (trial 2) is recorded as less than 1%. The EC50 in series [1] (setting [6]) and in series [1] (setting [7]) was greater than 10 µM each time. The CC50 is 59 µM in series [2], 11 µM in series [3], 14 µM in series [4] and 16 µM in series [5].
As for `COc1cc(OC)c2cc(-c3nc4ccccc4[nH]3)c(-c3ccc(C)cc3)nc2c1` [GT-35], the “% HBV DNA Inh. at 10 μM, trial 1” value in series [1] (trial 1) was determined as 36%. The “% HBV DNA Inh. at 10 μM, trial 2” value in series [1] (trial 2) was found to be 36%. Besides, the EC50 in series [1] (setting [6]) and in series [1] (setting [7]) was greater than 10 µM in each case. Further, the CC50 in series [2] was greater than 100 µM; in series [3], greater than 100 µM; in series [4], 42 µM; in series [5], 63 µM. Also, in series [2], the “percent cytotoxicity (cell growth inhibition) at 100 µM” value worked out at 14%. Also, the “% cytotoxicity at 100 µM” value in series [3] was 49%.
Consider `O=C(NCCN1CCOCC1)c1ccc2nc(-c3ccccc3)c(-c3ccccc3)nc2c1` [GT-36], for which, in series [1] (trial 1), the “% HBV DNA Inh. at 10 μM, trial 1” value is reported as 11%. Further, the “% HBV DNA Inh. at 10 μM, trial 2” value in series [1] (trial 2) amounted to 11%. Further, the EC50 in series [1] (setting [6]) and in series [1] (setting [7]) was greater than 10 µM in each case. In addition, the CC50 worked out at 10 µM in series [2], 18 µM in series [3], 31 µM in series [4] and 29 µM in series [5].
With `Cc1nc2ccccc2nc1-c1sc2ncccc2c1O` [GT-37], in series [1] (trial 1), the “% HBV DNA Inh. at 10 μM, trial 1” value was 40%. Besides, the “% HBV DNA Inh. at 10 μM, trial 2” value in series [1] (trial 2) was 40%. In addition, the EC50 in series [1] (setting [6]) and in series [1] (setting [7]) was greater than 10 µM throughout. The CC50 in series [2] is greater than 100 µM; in series [3], greater than 100 µM; in series [4] it was 19 µM; in series [5] it was 24 µM. In series [2], the “percent cytotoxicity (cell growth inhibition) at 100 µM” value was determined as 48%. Also, the “% cytotoxicity at 100 µM” value in series [3] is reported as less than 1%.
As to `COc1ccc(F)c(Cn2cnc(-c3ccccc3)c2-c2c[nH]cn2)c1F` [GT-38], the “% HBV DNA Inh. at 10 μM, trial 1” value in series [1] (trial 1) is listed as 45%. Also, the “% HBV DNA Inh. at 10 μM, trial 2” value in series [1] (trial 2) was 45%. For the same compound, the EC50 in series [1] (setting [6]) and in series [1] (setting [7]) was greater than 10 µM throughout. The CC50 is greater than 100 µM in series [2], 62 µM in series [3], 48 µM in series [4] and 24 µM in series [5]. In series [2], the “percent cytotoxicity (cell growth inhibition) at 100 µM” value was 24%.
Turning to `OC(Cn1cnc(-c2ccccc2)c1-c1cc2ccccc2[nH]1)c1cccnc1` (stereo not shown) [GT-41], the “% HBV DNA Inh. at 10 μM, trial 1” value in series [1] (trial 1) is less than 1%. In addition, the “% HBV DNA Inh. at 10 μM, trial 2” value in series [1] (trial 2) was less than 1%. The EC50 in series [1] (setting [6]) and in series [1] (setting [7]) was greater than 10 µM in each case. The CC50 is 27 µM in series [2], 12 µM in series [3], 18 µM in series [4] and 10 µM in series [5].
Take `O=C(Cc1ccc(O)cc1)NCc1nc(-c2cccc(F)c2)c(-c2ccccn2)[nH]1` [GT-42]: the “% HBV DNA Inh. at 10 μM, trial 1” value in series [1] (trial 1) was less than 1%. Further, the “% HBV DNA Inh. at 10 μM, trial 2” value in series [1] (trial 2) is on record as less than 1%. The EC50 in series [1] (setting [6]) and in series [1] (setting [7]) was greater than 10 µM throughout. In addition, the half-maximal cytotoxic concentration (CC50) in series [2] worked out at 3.5 µM; in series [3], 1.4 µM; in series [4] it was 13 µM; in series [5], 5.4 µM.
